Results from paper PMC8327158, “PEGylated AdipoRon derivatives improve glucose and lipid metabolism under insulinopenic and high-fat diet conditions” (Journal of Lipid Research, 2021).

Key:
[1] = Liver drug concentration and bioavailability after IP dosing; assay type: in vivo, C57BL/6J mice; conditions: IP 20 mg/kg; for liver Cmax: 8-week-old C57BL/6J mice, mean ± SEM
Description: Two groups of male C57BL/6J mice (21 mice/group) at 8 weeks of age were dosed IP with 20 mg/kg AdipoRon or AdipoRonPEG5, 0.2 ml/mouse formulated as 10% DMSO/10% Cremophor/20% PEG400/60% PBS. Whole blood was harvested at seven time points post IP dosing, 10 min, 30 min, 90 min, 180 min, 360 min, 960 min, and 1,440 min. Three mice were euthanized at each time point. Plasma was processed from whole blood by centrifugation of the ACD-treated blood for 10′ at 10,000 rpm in a standard centrifuge. Additionally, the liver was harvested. The tissues were weighed and snap frozen in liquid nitrogen.
To measure liver drug concentration and bioavailability, we prepared standards by adding 98 μl blank liver homogenate to an Eppendorf, spiked with 2 μl of initial standard. For QCs, we added 98.8 μl blank liver homogenate to an Eppendorf, spiked with 1.2 μl of initial standard. For samples, we mixed 100 μl liver homogenate with 200 μl of methanol containing 0.15% formic acid and 75 ng/ml IS (IS final conc. = 50 ng/ml). The samples were vortexed 15 s, incubated at room temp for 10′, and spun 2× 13,200 rpm in a standard microcentrifuge. The supernatant was then analyzed by LC-MS/MS.

INS-1 β-cells = assay: Palmitate-induced cell death protection assay (PI fluorescence plate reader); assay type: cell-based, rat; conditions: PA 0.25 mM, 24 h
Description: A 7.1 mM palmitic acid stock solution was prepared in 95% ethanol by incubating at 37°C. In parallel, 2% fatty-acid-free BSA was solubilized in sterile nanopure water at 37°C. The palmitic acid/BSA complex solution was then prepared by incubating the components in a molar ratio of 5:1 at 37°C in a shaking water bath for 1 h and was used directly for INS-1 stimulation experiments. Control cultures were carried out in the presence of BSA/ethanol in RPMI without palmitic acid.
Quantification of β-cell death by PI staining was carried out on a fluorescence plate reader. Following a 2 h preincubation under serum-free conditions, INS-1 cells (60k cells/well, 96-well plate (COSTAR ref # 3603)) were kept for 24 h in Phenol Red-free FBS-free RPMI 0.5% BSA as a control or containing 0.25 mM PA-BSA in the presence or absence of treatment. Cells were stained for 10 min at 4°C with propidium iodide (PI) at 1 μg/ml (added to the existing media to avoid loss of dead cells). PI fluorescence intensity was measured with a plate reader (PHERAstar, BMG Labtech).

ceramidase = assay: Ceramidase activity assay in lysate of treated INS1 cells; assay type: cell-based, rat; conditions: INS1 cells treated 20 μM 24 h
Description: INS1 cells were cultured in 10 cm dish and treated with AdipoRon or AdipoRonPEG5 (20 μM) for 24 h. Remove the media and collect cells using a cell scraper and transfer cells to a 1.5 ml tube. Centrifuge to spin down the cells before freezing in liquid nitrogen. Cell pellets were stored at –80°C till analysis. During analysis, INS1 cell pellets on dry ice were mixed with 500 μl of Dulbecco PBS with Ca^2+ and Mg^2+. The sample was then immediately placed on ice and lysed with a tissue disruptor probe (Fisher Scientific, Model FB50, Waltham MA) by performing five short disruption cycles at a power of 30% (3 s each cycle). Briefly perform a gentle vortexing of the vial. Take an aliquot of 50 μl of sample for protein determination (Pierce™ BCA Protein Assay Kit, Thermo Fisher Scientific). In total, 400 μl of lysate was transferred to a culture borosilicate glass tube containing 1.6 ml of Dulbecco PBS with Ca^2+ and Mg^2+ on ice. […] All the samples and serial dilutions were analyzed by injecting 1 μl in the LC-MS/MS system: Shimadzu LCMS-8060 triple-quadrupole mass spectrometer coupled to a Nexera X2 UHPLC chromatograph (Shimadzu Scientific Instruments, Columbia, MD) operating the dual ion source (DUIS) in electrospray positive ionization mode. […]

## O=C(COc1ccc(C(=O)c2ccccc2)cc1)NC1CCN(Cc2ccccc2)CC1 [AdipoRon]
[1]
  liver Cmax: 3169.30 ± 1437.09 ng/mL
INS-1 β-cells; 20 μM
  protection from PA-induced cell death: further modest increase in protection
ceramidase
  ceramidase activity / labeled ceramide levels in cell lysate: remained essentially the same as untreated control

## O=C(COc1ccc(C(=O)c2ccccc2)cc1)NC1CCN(Cc2ccc(OCCOCCOCCOCCOCCO)cc2)CC1 [AdipoRonPEG5]
[1]
  higher bioavailability in the liver than AdipoRon: eightfold
  liver Cmax: 25509.73 ± 1436.44 ng/mL
INS-1 β-cells; 20 μM
  reduction of PA-induced apoptosis: ~50%
INS-1 β-cells; dose range
  protective activity against PA-induced cell death: potent antiapoptotic activity
ceramidase
  ceramidase activity / labeled ceramide levels in cell lysate: reduced levels of labeled ceramides
